Measurements as given in US20240090503A1, “FUNGICIDAL OXADIAZOLES AND THEIR MIXTURES” (FMC CORPORATION, priority 2020, published 2024).
Marks after values point to notes of the source that are not given here.

Key:
Assay type in all cases: in vivo
[1] = tested on: Zymoseptoria tritici (the causal agent of wheat leaf blotch); test: Test B: preventive spray on wheat seedlings, wheat leaf blotch, visual disease rating; settings: test suspension 250 ppm; wheat seedlings
How it was run: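 This is a preventive test: spray application preceded Zymoseptoria tritici spore inoculation by one day. Test suspensions were in acetone/water with 250 ppm PEG400 surfactant, at the listed ppm rate. After 48 h saturated humidity at 24° C and 17 days at 20° C, visual ratings scored control from 0 to 100%.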

[2] = tested on: Puccinia recondita f. sp. tritici (the causal agent of wheat leaf rust); test: Test C: preventive spray on wheat seedlings, wheat leaf rust, visual disease rating; settings: wheat seedlings
How it was run: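 Wheat seedlings sprayed to run-off with compound in acetone/water (50/50) with 250 ppm PEG400, then inoculated with spores the following day. After 24 h saturated humidity at 20° C. and 6 days in growth chamber at 20° C., disease rated visually as % control relative to untreated controls.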

[3] = tested on: Phakopsora pachyrhizi (the causal agent of Asian soybean rust); test: Test A: preventive spray on soybean seedlings, Asian soybean rust, visual disease rating; settings: soybean seedlings
How it was run: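 Compound in acetone/water (50/50) with 250 ppm PEG400 sprayed to run-off on soybean seedlings; inoculated next day with Phakopsora pachyrhizi spores. Held 24 h at 22° C in saturated atmosphere, then 8 days in a 22° C growth chamber before visual rating as % disease control relative to controls.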

[4] = test suspension 10 ppm, 100 = 100% disease control, 0 = no control

Row | Compound | Test B disease control rating [1] | Test C disease control rating ([2]; test suspension 10 ppm) [%] | Test A disease control rating [3, 4] [%] | Test C disease control rating ([2]; test suspension 50 ppm) [%] | Test A disease control rating ([3]; test suspension 50 ppm) [%] | Test C disease control rating ([2]; test suspension 250 ppm) [%] | Test A disease control rating ([3]; test suspension 250 ppm) [%]
1 | N#CCNC(=O)c1ccc(Cc2ccc(-c3noc(C(F)(F)F)n3)cc2)cc1 [compound 283] | 0* % | 98 | 100 | – | – | – | –
2 | COCCNC(=O)c1cccc(Cc2ccc(-c3noc(C(F)(F)F)n3)cc2)c1 [compound 284] | 91* % | 100 | 100 | – | – | – | –
3 | N#CCNC(=O)c1cccc(Cc2ccc(-c3noc(C(F)(F)F)n3)cc2)c1 [compound 285] | 94* % | 97 | 100 | – | – | – | –
4 | O=C(NCC(F)(F)F)c1csc(Cc2ccc(-c3noc(C(F)(F)F)n3)cc2)c1 [compound 286] | 3* % | 100 | 100 | – | – | – | –
5 | COCCNC(=O)c1csc(Cc2ccc(-c3noc(C(F)(F)F)n3)cc2)c1 [compound 287] | 98* % | 100 | 100 | – | – | – | –
6 | N#CCNC(=O)c1csc(Cc2ccc(-c3noc(C(F)(F)F)n3)cc2)c1 [compound 288] | 91* % | 100 | 100 | – | – | – | –
7 | O=C(NCCn1cccn1)c1csc(Cc2ccc(-c3noc(C(F)(F)F)n3)cc2)c1 [compound 289] | 80* % | 100 | 100 | – | – | – | –
8 | O=C(NCC1CC1)c1csc(Cc2ccc(-c3noc(C(F)(F)F)n3)cc2)c1 [compound 290] | 53* % | 100 | 100 | – | – | – | –
9 | O=C(NCC(F)(F)F)c1coc(Cc2ccc(-c3noc(C(F)(F)F)n3)cc2)c1 [compound 291] | 13* % | 97 | 100 | – | – | – | –
10 | COCCNC(=O)c1coc(Cc2ccc(-c3noc(C(F)(F)F)n3)cc2)c1 [compound 292] | 96* % | 85 | 100 | – | – | – | –
11 | O=C(NCCn1cccn1)c1coc(Cc2ccc(-c3noc(C(F)(F)F)n3)cc2)c1 [compound 293] | 91* % | 79 | 100 | – | – | – | –
12 | N#CCNC(=O)c1coc(Cc2ccc(-c3noc(C(F)(F)F)n3)cc2)c1 [compound 294] | 50* % | 79 | 100 | – | – | – | –
13 | Cc1nc(COc2ccc(-c3noc(C(F)(F)F)n3)cc2)cs1 [compound 298] | 73* % | 0 | 50 | – | – | – | –
14 | CCOC(=O)c1cnn(Cn2cc(-c3noc(C(F)(F)F)n3)cn2)c1 [compound 305] | 0* % | – | – | 0 | 44 | – | –
15 | CN(C)C(=O)C1=NOC(Cn2cc(-c3noc(C(F)(F)F)n3)cn2)C1 (stereo not drawn) [compound 306] | 10* % | – | – | 0 | 0 | – | –
16 | CCOC(=O)c1cnn(CCn2cc(-c3noc(C(F)(F)F)n3)cn2)c1 [compound 307] | 0* % | – | – | 0 | 0 | – | –
17 | COC(=O)c1ccc(CCn2cc(-c3noc(C(F)(F)F)n3)cn2)cc1 [compound 310] | 0* % | – | – | 0 | 0 | – | –
18 | COC(=O)c1ccc(Cn2cc(-c3noc(C(F)(F)F)n3)cn2)cc1 [compound 311] | 0* % | – | – | 0 | 0 | – | –
19 | COC(=O)c1cc(COc2ccc(-c3noc(C(F)(F)F)n3)cc2)on1 [compound 312] | 0* % | 0 | 0 | – | – | – | –

Row | Compound | Test B disease control rating [1] | Test C disease control rating ([2]; test suspension 10 ppm) [%] | Test A disease control rating [3, 4] [%] | Test C disease control rating ([2]; test suspension 50 ppm) [%] | Test A disease control rating ([3]; test suspension 50 ppm) [%] | Test C disease control rating ([2]; test suspension 250 ppm) [%] | Test A disease control rating ([3]; test suspension 250 ppm) [%]
20 | FC(F)(F)c1nc(-c2ccc(OCc3cn4ccccc4n3)cc2)no1 [compound 313] | 14* % | 0 | 77 | – | – | – | –
21 | CN(C)C(=O)c1cc(COc2ccc(-c3noc(C(F)(F)F)n3)cc2)on1 [compound 314] | 86* % | 0 | 99 | – | – | – | –
22 | CN(C)C(=O)c1coc(Cc2ccc(-c3noc(C(F)(F)F)n3)cc2)n1 [compound 315] | 97* % | 99 | 100 | – | – | – | –
23 | COC(=O)c1ccc(COc2ccc(-c3noc(C(F)(F)F)n3)cc2)s1 [compound 317] | 54* % | 0 | 0 | – | – | – | –
24 | FC(F)(F)c1nc(-c2ccc(OCc3ccon3)cc2)no1 [compound 318] | 11* % | 0 | 0 | – | – | – | –
25 | FC(F)(F)c1nc(-c2ccc(OCc3cn4cccnc4n3)cc2)no1 [compound 319] | 33* % | 0 | 97 | – | – | – | –
26 | FC(F)(F)c1nc(-c2ccc(OCc3nc4ncccc4o3)cc2)no1 [compound 320] | 33* % | 0 | 97 | – | – | – | –
27 | O=S1(=O)CCCCN1Cc1ccc(-c2noc(C(F)(F)F)n2)cc1 [compound 321] | 99* % | – | – | – | – | 100 | 100
28 | O=S1(=O)CCCN1Cc1ccc(-c2noc(C(F)(F)F)n2)cc1 [compound 322] | 95* % | – | – | – | – | 100 | 100
29 | O=S1(=O)CCCCN1Cc1ccc(-c2noc(C(F)(F)F)n2)s1 [compound 323] | 92* % | – | – | – | – | 100 | 100
30 | O=S1(=O)CCCN1Cc1ccc(-c2noc(C(F)(F)F)n2)s1 [compound 324] | 80* % | – | – | – | – | 100 | 100
31 | O=C1COCCN1Cc1ccc(-c2noc(C(F)(F)F)n2)s1 [compound 325] | 36* % | – | – | – | – | 100 | 100
32 | FC(F)(F)c1nc(-c2cnn(CCCn3cc(-c4noc(C(F)(F)F)n4)cn3)c2)no1 [compound 326] | 1* % | – | – | – | – | 67 | 84
33 | O=C(NCC1CC1)c1coc(Cc2ccc(-c3noc(C(F)(F)F)n3)cc2)n1 [compound 327] | 94* % | 100 | 100 | – | – | – | –
34 | O=C(NCC(F)(F)C(F)(F)F)c1coc(Cc2ccc(-c3noc(C(F)(F)F)n3)cc2)n1 [compound 328] | 0* % | 100 | 100 | – | – | – | –
35 | O=C(NC1CSC1)c1coc(Cc2ccc(-c3noc(C(F)(F)F)n3)cc2)n1 [compound 329] | 98* % | 98 | 100 | – | – | – | –
36 | CC(C)(NC(=O)c1coc(Cc2ccc(-c3noc(C(F)(F)F)n3)cc2)n1)C(F)(F)F [compound 331] | 97* % | 94 | 99 | – | – | – | –
37 | O=C(NC1CCOC1=O)c1coc(Cc2ccc(-c3noc(C(F)(F)F)n3)cc2)n1 (stereo not drawn) [compound 332] | 99* % | 99 | 100 | – | – | – | –
